pEC50: −log10 of the molar value. Read-outs that look alike come from different tables or passages of the source.
How the values were obtained:
in vitro [1] = settings: human
in vitro [2] = settings: human; remark: listed apart in the source
[3] = test system: human coronavirus OC43 (HCoV OC43); assay: Cytopathic effect (CPE) assay, HCoV OC43 in Huh7; assay type: cell-based; settings: Betacoronavirus 1, OC43, Huh-7, Huh7 cells
Description: The inhibitory effects of compounds on the replication of respiratory syncytial virus (RSV), human coronavirus OC43, influenza A virus, Zika virus (Zika) were tested using cytopathic effect (CPE) assay.
Experimental cells were inoculated in 96-well cell culture plate at a certain cell density, and cultured in an incubator (5% CO2, 37° C.) overnight. Compounds and viruses were added on the second day. […] Then cell viability of each well was detected using Cell Titer-Glo or CCK-8. […] The cytotoxicity test method was the same as the corresponding antiviral test method without virus infection.
The antiviral activity and cytotoxicity of the compounds are respectively indicated by the inhibition rate (%) of compounds on virus-induced cellular viral effects and cell viability (%). Calculating formulas are as follows:
Inhibition rate (%)=(reading value of test well—average value of virus control)/(average value of cell control—average value of virus control)×100;
EC50 and CC50 value are calculated by Prism software, and the inhibition curve fitting method is “log (inhibitor) vs. response—Variable slope”.

in vivo = settings: male, CD-1, mouse
[4] = set-up: species or system SD rats; settings: male, Sprague-Dawley (SD), rat, in vivo
Description: 18 male SD rats were randomly divided into 6 groups, with 3 rats for each group. Before the experiment, they were fasted for 12 hours (not for the intravenous experiment group) and allowed to drink water. 4 hours after dosing, the animals were fed. Among them, 3 groups were intragastrically administered with 10 mg/kg of A9, A146 and A151, respectively, and the remaining 3 groups were intravenously administered with 2 mg/kg of A9, A146 and A151, respectively. The vehicle for administration was DMSO/EtOH/PEG300/0.9% NaCl (5/5/40/50, v/v/v/v).
5 min (intravenous only), 0.25, 0.5, 1.0, 2.0, 4.0, 6.0, 8.0 and 24 h post administration, 0.2 mL of blood sample was collected from jugular vein into EDTA-K2 tubes, and centrifuged at 11000 rpm for 5 min. The plasma was separated, and frozen in a refrigerator at −70° C. for testing. The operation was conducted in an ice water bath. The concentration of A9 in plasma was determined by LC-MS-MS, and the pharmacokinetic parameters were calculated.

[5] = test system: respiratory syncytial virus (RSV); assay: Cytopathic effect (CPE) assay, RSV in HEp-2; assay type: cell-based; settings: human respiratory syncytial virus, HEp-2 cells
[6] = test system: porcine epidemic diarrhea virus (PEDV); assay: Anti-porcine epidemic diarrhea virus (PEDV) activity test in Vero cells, fluorescence quantitative PCR; assay type: cell-based; settings: 36 h
[7] = test system: 2019 novel coronavirus (SARS-CoV-2); assay: microbe, parasite or virus in culture; assay type: cell-based; settings: Vero E6 cells, 24 h p.i.; for inhibition at 5 µM: Severe acute respiratory syndrome coronavirus 2, Vero C1008, 24 h, read-out: Inhibition Rate (5 μM); for pEC50: Severe acute respiratory syndrome coronavirus 2, Vero C1008, read-out: EC50
[8] = Pharmacokinetic evaluation in mice
[9] = test system: dengue fever virus (DENV); assay: Dengue virus plaque reduction test in Vero cells; assay type: cell-based; settings: Dengue virus, read-out: DENV (Vero) 5 μM (inhibition rate), 5 μM, plaque reduction
Zika virus (Zika) = assay: Cytopathic effect (CPE) assay, Zika virus in Huh7; assay type: cell-based; settings: for pEC50: Huh-7, Huh7 cells, CPE
[10] = Tissue distribution test in mice; assay type: in vivo, CD-1 mice; settings: oral administration of A151, liver, kidney, lung, heart
Description: 16 male CD-1 mice were randomly divided into 4 groups, with 4 mice for each group.
Before the experiment, they were fasted for 12 hours and allowed to drink water. 2 hours after dosing, the animals were fed. The 4 groups were given 200 mg/kg A151 (dissolved in DMSO-enthanol-PEG300-saline, volume ratio: 5/5/40/50) by intragastric administration. At 1 h, 2 h, 4 h and 8 h after administration, the mice were anesthetized; blood sample was collected by heart puncture, and tissues of liver, kidney, heart and lung were harvested. The distribution profile of A9 in the tissues was determined by HPLC-MS/MS.

[11] = Porcine epidemic diarrhea virus, Vero
[12] = male, CD-1, mouse, in vivo, po, 50 mg/kg

Compound	CC50 (in vitro [1])	CC50 (in vitro [2])	pEC50 [3]	half-life (in vivo; po, 50 mg/kg)	F % (oral bioavailability) [4]	T1/2 ([4]; iv, 2 mg/kg)	T1/2 ([4]; po, 10 mg/kg)	pEC50 [5]	pEC50 [6, 11]	inhibition at 5 µM [7]	pEC50 [7]	AUC(0-inf) [8, 12]	AUC(0-t) [8, 12]	Cmax [8, 12]	Tmax [8, 12]	pEC50 (Zika virus (Zika))	also measured
[2H]c1cc([C@]2(C#N)O[C@H](CO)[C@@H](O)[C@H]2O)n2ncnc(N)c12 [Compound A9]	> 10000 nM	> 10000 nM	5.75	1 h	21.3%	2.3 h	3.4 h	6.25	7.80	99%	6.36	6010 ng·h/mL	5980 ng·h/mL	3230 ng/mL	1.2 h	4.92	inhibition at 5 µM [9]: 100%
[2H]C([2H])(O)[C@H]1O[C@@](C#N)(c2ccc3c(N)ncnn23)[C@H](O)[C@@H]1O [Compound A10]	> 10000 nM	> 10000 nM	5.70	1.3 h				6.20	8.22	99%	6.37	4620 ng·h/mL	4550 ng·h/mL	1760 ng/mL	0.8 h		
[2H]c1cc([C@]2(C#N)O[C@H](COC(=O)C(C)C)[C@@H](O)[C@H]2O)n2ncnc(N)c12 [Compound A70]	> 10000 nM	> 10000 nM	5.72					6.24	8.70	99%							inhibition at 5 µM (Zika virus (Zika); Huh-7, 5 μM, Huh7 cells): ~27%
[2H]c1cc([C@]2(C#N)O[C@H](COC(=O)C(C)C)[C@@H](OC(=O)C(C)C)[C@H]2OC(=O)C(C)C)n2ncnc(N)c12 [Compound A151]		> 10000 nM	5.70		56.7%	1.5 h	2.6 h	6.20	> 7.00	99%	6.51						tissue distribution of metabolite A9 (in words) [10]: evenly distributed, without accumulation in liver or kidney
N#C[C@@]1(c2ccc3c(N)ncnn23)O[C@H](CO)[C@@H](O)[C@H]1O [GS-441524, reference compound]	> 10000 nM	> 10000 nM	5.73	1.2 h				6.14		99%	6.32	4620 ng·h/mL				4.82	half-life (in vivo; iv, 25 mg/kg): 1 h; pEC50 [6]: 7.59; AUC(0-inf) ([8]; male, CD-1, mouse, in vivo, iv, 25 mg/kg): 14600 ng·h/mL; Tmax ([8]; mice, p.o. 50 mg/kg, plasma): 0.8 h

Reference: patent publication US20240140975A1, “ANTIVIRAL APPLICATION OF NUCLEOSIDE ANALOG OR COMBINATION FORMULATION CONTAINING NUCLEOSIDE ANALOG” (priority 2020, published 2024)
